Results published in paper PMC10537280, “Chemo-/Regio-Selective Synthesis of Novel Functionalized Spiro[pyrrolidine-2,3′-oxindoles] under Microwave Irradiation and Their Anticancer Activity” (Molecules, 2023).
Read-outs that look alike come from different tables or passages of the source.

Columns and labels:
[1] = system: immortalized lung BEAS-2B normal cell lines; assay: MTT cytotoxicity assay, normal lung BEAS-2B cells; assay type: cell-based; conditions: Homo sapiens, 72 h, read-out: BEAS-2B Cells IC50
Description: (§1) Adenocarcinomic human alveolar basal epithelial (A549) and human hepatoma (HepG2) cancer cell lines, immortalized normal human liver (LO2), human bronchial epithelial (BEAS-2B cells were purchased from [NT], Manassas, VA, USA). […] Invitrogen, Waltham, MA, USA). All cells were incubated at 37 °C in a 5% humidified CO2 incubator). All test compounds were dissolved in DMSO at a final concentration of 50 mM and stored at -20 °C before use. Cytotoxicity was assessed by the MTT (5 mg/mL) assay, as described previously. Briefly, 5 × 10^3 cells per well were seeded in 96-well plates before drug treatments. […] Cells without drug treatment were used as controls. Subsequently, 10 μL of 5 mg/mL MTT solution was added to each well and incubated at 37 °C for 4 h, followed by the addition of 100 μL solubilization buffer (12 mM HCl in a solution of 10% SDS) and overnight incubation. The absorbance, A570 nm, was then determined in each well on the next day. The percentage of cell viability was calculated using the expression: % viability = Atreated/Acontrol × 100, and was given as cytotoxicity (Table 2 and Table 3; […]

[2] = system: immortalized liver LO2 normal cell lines; assay: MTT cytotoxicity assay, normal liver LO2 cells; assay type: cell-based; conditions: Homo sapiens, read-out: LO2 Cells IC50
Description: as §1

[3] = system: human lung A549 cancer cell lines; assay: MTT cytotoxicity assay, lung cancer A549 cells; assay type: cell-based; conditions: for IC50: Homo sapiens, read-out: A549 Cells IC50; for S.I. Selectivity index lung (IC50 normal cells/IC50 cancer cells): BEAS-2B IC50 / A549 IC50
Description: as §1

[4] = system: human HepG2 cancer cell lines; assay: MTT cytotoxicity assay, liver cancer HepG2 cells; assay type: cell-based; conditions: for IC50: read-out: HepG2 Cells IC50; for S.I. Selectivity index liver (IC50 normal cells/IC50 cancer cells): LO2 IC50 / HepG2 IC50
Description: as §1

[5] = MTT, 0.19–100 μM, normal lung cells
[6] = L02, MTT, 72 h, 0.19–100 μM, normal liver cells
[7] = A549, MTT, 72 h, 0.19–100 μM, means of at least three independent experiments in duplicates
[8] = Homo sapiens, HepG2, 72 h, MTT, 72 h, 0.19–100 μM, means of at least three independent experiments in duplicates

Row | melting point [°C] | SMILES | IC50 [1, 5] [µM] | IC50 [2, 6] [µM] | IC50 [3, 7] [µM] | IC50 [4, 8] [µM] | S.I. Selectivity index liver (IC50 normal cells/IC50 cancer cells) [4] | S.I. Selectivity index lung (IC50 normal cells/IC50 cancer cells) [3] | IC50 [1] [µM] | IC50 ([2]; L02, 72 h) [µM] | IC50 ([3]; A549, 72 h) [µM] | IC50 ([4]; Homo sapiens, HepG2, 72 h) [µM] | IC50 ([4]; MTT, 72 h, 0.19–100 μM, means of at least three independent experiments in duplicates) [µM]
1 | 108 to 110 | COc1ccc(OC)c(C2C([N+](=O)[O-])C(C)NC23C(=O)Nc2ccc(Br)cc23)c1 (centres unmarked) [Compound 4e, 5-bromo-3′-(2,5-dimethoxyphenyl)-5′-methyl-4′-nitrospiro[indoline-3,2′-pyrrolidin]-2-one] | > 100 | 81.3 | 85.6 | > 100 | <0.81 |  |  |  |  |  | 
2 |  | C[C@@H]1CC[C@H]2[C@@H](C)C(=O)O[C@@H]3O[C@@]4(C)CC[C@@H]1[C@]32OO4 [ART, artemisinin, reference compound] | 100 | > 100 | 100 | > 100 |  |  |  |  |  |  | 
3 | 95 to 97 | COc1ccc(C2C([N+](=O)[O-])C(CC(C)C)NC23C(=O)Nc2ccc(Br)cc23)cc1OCc1ccccc1 (centres unmarked) [Compound 4f, 3′-(3-(benzyloxy)-4-methoxyphenyl)-5-bromo-5′-isobutyl-4′-nitrospiro[indoline-3,2′-pyrrolidin]-2-one] | > 100 | > 100 | 41.1 | 82 |  |  |  |  |  |  | 
4 | 73 to 75 | COc1ccc(C2C([N+](=O)[O-])C(CC(C)C)NC23C(=O)Nc2ccccc23)cc1OC (centres unmarked) [Compound 4h, 3′-(3,4-dimethoxyphenyl)-5′-isobutyl-4′-nitrospiro[indoline-3,2′-pyrrolidin]-2-one] | > 100 | > 100 | > 100 | > 100 |  |  |  |  |  |  | 
5 | 165 to 167 | COc1ccc(C2C([N+](=O)[O-])C(C)NC23C(=O)Nc2ccccc23)cc1OC (centres unmarked) [Compound 4i, 3′-(3,4-dimethoxyphenyl)-5′-methyl-4′-nitrospiro[indoline-3,2′-pyrrolidin]-2-one] | > 100 | > 100 | > 100 | > 100 |  |  |  |  |  |  | 
6 | 68 to 70 | COc1cc(C2C([N+](=O)[O-])C(CC(C)C)NC23C(=O)Nc2ccccc23)ccc1OCc1ccccc1 (centres unmarked) [Compound 4k, 3′-(4-(benzyloxy)-3-methoxyphenyl)-5′-isobutyl-4′-nitrospiro[indoline-3,2′-pyrrolidin]-2-one] | > 100 | 33.3 | > 100 | 67.8 | 0.49 |  |  |  |  |  | 
7 | 182 to 184 | COc1ccc(OC)c(C2C([N+](=O)[O-])C(CC(C)C)NC23C(=O)Nc2ccccc23)c1 (centres unmarked) [Compound 4a, 3′-(2,5-dimethoxyphenyl)-5′-isobutyl-4′-nitrospiro[indoline-3,2′-pyrrolidin]-2-one] | > 100 | > 100 | > 100 | > 100 |  |  |  |  |  |  | 
8 | 168 to 170 | COc1cc(C2C([N+](=O)[O-])C(C)NC23C(=O)Nc2ccc(Br)cc23)ccc1OCc1ccccc1 (centres unmarked) [Compound 4m, 3′-(4-(benzyloxy)-3-methoxyphenyl)-5-bromo-5′-methyl-4′-nitrospiro[indoline-3,2′-pyrrolidin]-2-one] | 63.5 | 36.6 | 45.9 | 41.6 | 0.88 | 1.38 |  |  |  |  | 
9 | 168 to 170 | COc1cc(C2C([N+](=O)[O-])C(C)NC23C(=O)Nc2ccccc23)ccc1OCc1ccccc1 (centres unmarked) [Compound 4l, 3′-(4-(benzyloxy)-3-methoxyphenyl)-5′-methyl-4′-nitrospiro[indoline-3,2′-pyrrolidin]-2-one] | > 100 | > 100 | > 100 | > 100 |  |  |  |  |  |  | 
10 |  | CCN(CC)CCCC(C)Nc1ccnc2cc(Cl)ccc12 (centres unmarked) [CQ, chloroquine, reference compound] |  |  |  |  | 0.30 |  | 3.07 | 15 | 100 | 49.02 ± 0.4 | 
11 | 142 to 144 | COc1ccc(OC)c(C2C([N+](=O)[O-])C(CC(C)C)NC23C(=O)Nc2ccc(Br)cc23)c1 (centres unmarked) [Compound 4c, 5-bromo-3′-(2,5-dimethoxyphenyl)-5′-isobutyl-4′-nitrospiro[indoline-3,2′-pyrrolidin]-2-one] | 33.5 | 37.6 | 35 | 60.3 | 0.62 | 0.96 |  |  |  |  | 
12 | 210 to 212 | COc1ccc(OC)c(C2C([N+](=O)[O-])C(C(C)C)NC23C(=O)Nc2ccccc23)c1 (centres unmarked) [Compound 4d, 3′-(2,5-dimethoxyphenyl)-5′-isopropyl-4′-nitrospiro[indoline-3,2′-pyrrolidin]-2-one] | > 100 | > 100 | > 100 | > 100 |  |  |  |  |  |  | 
13 | 150 to 152 | COc1ccc(OC)c(C2C([N+](=O)[O-])C(C)NC23C(=O)Nc2ccccc23)c1 (centres unmarked) [Compound 4b, 3′-(2,5-dimethoxyphenyl)-5′-methyl-4′-nitrospiro[indoline-3,2′-pyrrolidin]-2-one] | > 100 | > 100 | > 100 | > 100 |  |  |  |  |  |  | 
14 |  | C[C@H]1[C@H](OC(=O)CCC(=O)O)O[C@@H]2O[C@@]3(C)CC[C@H]4[C@H](C)CC[C@@H]1[C@@]24OO3 [AS, artesunic acid, reference compound] | 7.53 | 8.25 | 9.85 | 4.09 ± 0.4 | 2.01 | 0.76 |  |  |  |  | 

Row | SMILES | melting point [°C] | IC50 [1, 5] [µM] | IC50 [2, 6] [µM] | IC50 [3, 7] [µM] | IC50 [4, 8] [µM] | S.I. Selectivity index liver (IC50 normal cells/IC50 cancer cells) [4] | S.I. Selectivity index lung (IC50 normal cells/IC50 cancer cells) [3] | IC50 [1] [µM] | IC50 ([2]; L02, 72 h) [µM] | IC50 ([3]; A549, 72 h) [µM] | IC50 ([4]; Homo sapiens, HepG2, 72 h) [µM] | IC50 ([4]; MTT, 72 h, 0.19–100 μM, means of at least three independent experiments in duplicates) [µM]
15 | COc1ccc(C2C([N+](=O)[O-])C3CCCN3C23C(=O)Nc2ccc(Br)cc23)cc1OC (centres unmarked) [Compound 4w, 5-bromo-2′-(3,4-dimethoxyphenyl)-1′-nitro-1′,2′,5′,6′,7′,7a′-hexahydrospiro [indoline-3,3′-pyrrolizin]-2-one] | 195 to 197 | > 100 | > 100 | > 100 | > 100 |  |  |  |  |  |  | 
16 | COc1ccc(C2C([N+](=O)[O-])C3CCCN3C23C(=O)Nc2ccccc23)cc1OC (centres unmarked) [Compound 4v, 2′-(3,4-dimethoxyphenyl)-1′-nitro-1′,2′,5′,6′,7′,7a′-hexahydrospiro[indoline-3,3′-pyrrolizin]-2-one] | 175 to 177 | > 100 | > 100 | > 100 | > 100 |  |  |  |  |  |  | 
17 | COc1ccc(C2C([N+](=O)[O-])C3CCCN3C23C(=O)Nc2ccccc23)cc1OCc1ccccc1 (centres unmarked) [Compound 4p, 2′-(3-(benzyloxy)-4-methoxyphenyl)-1′-nitro-1′,2′,5′,6′,7′,7a′-hexahydrospiro[indoline-3,3′-pyrrolizin]-2-one] | 83 to 85 | > 100 | > 100 | > 100 | > 100 |  |  |  |  |  |  | 
18 | COc1ccc(C2C([N+](=O)[O-])C3CCCN3C23C(=O)Nc2ccccc23)cc1 (centres unmarked) [Compound 4r, 2′-(4-methoxyphenyl)-1′-nitro-1′,2′,5′,6′,7′,7a′-hexahydrospiro[indoline-3,3′-pyrrolizin]-2-one] | 116 to 118 | > 100 | > 100 | > 100 | > 100 |  |  |  |  |  |  | 
19 | COc1cc(C2C([N+](=O)[O-])C3CCCN3C23C(=O)Nc2ccc(Br)cc23)ccc1OCc1ccccc1 (centres unmarked) [Compound 4o, 2′-(4-(benzyloxy)-3-methoxyphenyl)-5-bromo-1′-nitro-1′,2′,5′,6′,7′,7a′-hexahydrospiro[indoline-3,3′-pyrrolizin]-2-one] | 95 to 97 | > 100 | > 100 | > 100 | > 100 |  |  |  |  |  |  | 
20 | COc1ccc(C2C([N+](=O)[O-])C3CCCN3C23C(=O)Nc2ccc(Br)cc23)cc1OCc1ccccc1 (centres unmarked) [Compound 4q, 2′-(3-(benzyloxy)-4-methoxyphenyl)-5-bromo-1′-nitro-1′,2′,5′,6′,7′,7a′-hexahydrospiro[indoline-3,3′-pyrrolizin]-2-one] | 98 to 100 | > 100 | 46.8 | 47.9 | 85.6 | 0.54 |  |  |  |  |  | 86.5
21 | COc1cc(C2C([N+](=O)[O-])C3CCCN3C23C(=O)Nc2ccccc23)ccc1OCc1ccccc1 (centres unmarked) [Compound 4n, 2′-(4-(benzyloxy)-3-methoxyphenyl)-1′-nitro-1′,2′,5′,6′,7′,7a′-hexahydrospiro[indoline-3,3′-pyrrolizin]-2-one] | 66 to 68 | > 100 | > 100 | > 100 | > 100 |  |  |  |  |  |  | 
